Measured values reported in patent US10550107B2, “Process for the preparation of N-[4-[(3-chloro-4-fluoro phenyl) amino]-7-[[(3s-tetrahydro-3-furanyl]oxy]-6-quinazolinyl]-4-(dimethyl amino)-(2E)-2-butenamide (2Z)-2-butenedioate (1:2) and its polymorphs thereof” (MSN LABORATORIES PRIVATE LIMITED, priority 2015, dated 2020).

Assay: Polymorphic stability of crystalline Form-R
Type: physicochemical
Details: at various conditions (not specified)

CN(C)C/C=C/C(=O)Nc1cc2c(Nc3ccc(F)c(Cl)c3)ncnc2cc1O[C@H]1CCOC1.O=C(O)/C=C\C(=O)O [Form-R, N-[4-[(3-chloro-4-fluorophenyl)amino]-7-[[(3S)-tetrahydro-3-furanyl]oxy]-6-quinazolinyl]-4-(dimethylamino)-(2E)-2-butenamide (2Z)-2-butenedioate (1:2)]
stability of the crystalline form / conversion to other crystalline forms: stable at various conditions and does not convert to any of the other crystalline forms
